Data as given in patent US20230146675A1, “PYRIMIDO[5,4-d]PYRIMIDINE DERIVATIVES AS ENT INHIBITORS FOR THE TREATMENT OF CANCERS, AND COMBINATION THEREOF WITH ADENOSINE RECEPTOR ANTAGONISTS” (ITEOS BELGIUM SA, priority 2020, published 2023).

Each compound was assayed against T1, human ENT1 (Homo sapiens, UniProt Q99808) (assay: ENT1 binding assay (competition with Sahenta-DY647 on JAR cells)). Settings: binned IC50.
T1 sequence (Q99808 1-456): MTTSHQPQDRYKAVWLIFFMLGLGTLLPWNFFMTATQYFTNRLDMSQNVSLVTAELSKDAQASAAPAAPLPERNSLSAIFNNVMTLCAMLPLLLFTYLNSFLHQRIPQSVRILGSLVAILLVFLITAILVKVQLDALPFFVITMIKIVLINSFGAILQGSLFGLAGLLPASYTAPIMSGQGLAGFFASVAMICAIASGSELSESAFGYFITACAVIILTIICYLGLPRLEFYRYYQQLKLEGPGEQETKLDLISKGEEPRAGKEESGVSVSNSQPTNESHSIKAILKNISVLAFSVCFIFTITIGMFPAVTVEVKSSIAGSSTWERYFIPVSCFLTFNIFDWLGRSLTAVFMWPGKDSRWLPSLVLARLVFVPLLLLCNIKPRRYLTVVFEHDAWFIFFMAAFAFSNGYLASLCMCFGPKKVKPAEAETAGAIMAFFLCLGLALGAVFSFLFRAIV
Parameters: JAR cells expressing ENT1 were bought from ATCC; host or cells: JAR cells
Outline: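 JAR cells were incubated with test compounds and the fluorescent ligand Sahenta-DY647 in competition. Plates were washed twice by centrifugation (4 min, 400 rcf, 4 °C). Binding potency was derived from the final fluorescence.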
In the case of COCCN(CCOC)c1nc(N2CC[C@@H](OC)C2)c2nc(N(CCOC)CCOC)nc(N3CCC(OC)CC3)c2n1 [Compound 107, (R)-N2,N2,N6,N6-tetrakis(2-methoxyethyl)-4-(4-methoxypiperidin-1-yl)-8-(3-methoxypyrrolidin-1-yl)pyrimido[5,4-d]pyrimidine-2,6-diamine], the IC50 is reported as 100 to 500 nM.
COCCN(CCOC)c1nc(N2CCN(C)C(=O)C2)c2nc(N3CCn4cnnc4C3)nc(N3CCC(OC)CC3)c2n1 [Compound 299, 4-(2-(bis(2-methoxyethyl)amino)-6-(5,6-dihydro-[1,2,4]triazolo[4,3-a]pyrazin-7(8H)-yl)-8-(4-methoxypiperidin-1-yl)pyrimido[5,4-d]pyrimidin-4-yl)-1-methylpiperazin-2-one] was tested, and the IC50 was 100 to 500 nM.
COCCN(CCOC)c1nc(N2CCC(OC)CC2)c2nc(N(CCOC)CCOC)nc(NCc3cccc(OC(F)F)c3)c2n1 [Compound 144, N4-(3-(difluoromethoxy)benzyl)-N2,N2,N6,N6-tetrakis(2-methoxyethyl)-8-(4-methoxypiperidin-1-yl)pyrimido[5,4-d]pyrimidine-2,4,6-triamine] gave an IC50 of 100 to 500 nM.
With COCCN(CCOC)c1nc(N2CCN(C)C(=O)C2)c2nc(N3CCN(c4ncccc4N)CC3)nc(N3CCC(OC)CC3)c2n1 [Compound 294, 4-(6-(4-(3-aminopyridin-2-yl)piperazin-1-yl)-2-(bis(2-methoxyethyl)amino)-8-(4-methoxypiperidin-1-yl)pyrimido[5,4-d]pyrimidin-4-yl)-1-methylpiperazin-2-one] the IC50 was less than 100 nM.
COCCN(CCOC)c1nc(N2CCN(c3ncn(C)n3)CC2)c2nc(N(CCOC)CCOC)nc(N(C)Cc3cccc(OC)c3)c2n1 [Compound 243, N4-(3-methoxybenzyl)-N2,N2,N6,N6-tetrakis(2-methoxyethyl)-N4-methyl-8-(4-(1-methyl-1H-1,2,4-triazol-3-yl)piperazin-1-yl)pyrimido[5,4-d]pyrimidine-2,4,6-triamine] gave an IC50 of less than 100 nM.
COCCN(CCOC)c1nc(N2CCN(C)C(=O)C2)c2nc(N(CCOC)CCOC)nc(N(C)Cc3ccccc3)c2n1 [Compound 230, 4-(8-(benzyl(methyl)amino)-2,6-bis(bis(2-methoxyethyl)amino)pyrimido[5,4-d]pyrimidin-4-yl)-1-methylpiperazin-2-one] showed an IC50 of less than 100 nM.
Work on COCCN(CCOC)c1nc(N2CC(O)(C(F)(F)F)C2)c2nc(N(CCOC)CCOC)nc(N3CCn4ncnc4C3)c2n1 [Compound 193, 1-(2,6-bis(bis(2-methoxyethyl)amino)-8-(5,6-dihydro-[1,2,4]triazolo[1,5-a]pyrazin-7(8H)-yl)pyrimido[5,4-d]pyrimidin-4-yl)-3-(trifluoromethyl)azetidin-3-ol] yielded an IC50 of 100 to 500 nM.
For CCCNc1nc(N(CCOC)CCOC)nc2c(N3CCN(C)C(=O)C3)nc(N(CCOC)CCOC)nc12 [Compound 214, 4-(2,6-bis(bis(2-methoxyethyl)amino)-8-(propylamino)pyrimido[5,4-d]pyrimidin-4-yl)-1-methylpiperazin-2-one], the IC50 was 100 to 500 nM.
For COCCN(CCOC)c1nc(N2CCC(OC)CC2)c2nc(N(CCOC)CCOC)nc(NCc3ccc(F)c(F)c3)c2n1 [Compound 139, N4-(3,4-difluorobenzyl)-N2,N2,N6,N6-tetrakis(2-methoxyethyl)-8-(4-methoxypiperidin-1-yl)pyrimido[5,4-d]pyrimidine-2,4,6-triamine], the IC50 was less than 100 nM.
COCCN(CCOC)c1nc(N2CCC(OC)CC2)c2nc(N(CCOC)CCOC)nc(N(C)CCc3ccccn3)c2n1 [Compound 83, N2,N2,N6,N6-tetrakis(2-methoxyethyl)-8-(4-methoxypiperidin-1-yl)-N4-methyl-N4-(2-(pyridin-2-yl)ethyl)pyrimido[5,4-d]pyrimidine-2,4,6-triamine] showed an IC50 of 500 to 1000 nM.
COCCN(CCOC)c1nc(N2CC(O)(C(F)(F)F)C2)c2nc(N(CCO)CCO)nc(N3CCC(OC)CC3)c2n1 [Compound 326, 2,2′-((6-(bis(2-methoxyethyl)amino)-8-(3-hydroxy-3-(trifluoromethyl)azetidin-1-yl)-4-(4-methoxypiperidin-1-yl)pyrimido[5,4-d]pyrimidin-2-yl)azanediyl)bis(ethan-1-ol)] gave an IC50 of 500 to 1000 nM.
COCCN(CCOC)c1nc(N2CCC(OC)CC2)c2nc(N(CCOC)CCOC)nc(NCCCNS(C)(=O)=O)c2n1 [Compound 180, N-(3-((2,6-bis(bis(2-methoxyethyl)amino)-8-(4-methoxypiperidin-1-yl)pyrimido[5,4-d]pyrimidin-4-yl)amino)propyl)methanesulfonamide] was tested, and the IC50 was 500 to 1000 nM.
Work on COCCN(CCOC)c1nc(N2CCn3ncnc3C2)c2nc(N(CCOC)CCOC)nc(N3CCC(OC)CC3)c2n1 [Compound 116, 4-(5,6-dihydro-[1,2,4]triazolo[1,5-a]pyrazin-7(8H)-yl)-N2,N2,N6,N6-tetrakis(2-methoxyethyl)-8-(4-methoxypiperidin-1-yl)pyrimido[5,4-d]pyrimidine-2,6-diamine] yielded an IC50 of less than 100 nM.
For COCCN(CCOC)c1nc(N2CCC(OC)CC2)c2nc(N(CCOC)CCOC)nc(NCc3ccccc3)c2n1 [Compound 49, N4-benzyl-N2,N2,N6,N6-tetrakis(2-methoxyethyl)-8-(4-methoxypiperidin-1-yl)pyrimido[5,4-d]pyrimidine-2,4,6-triamine], the IC50 was less than 100 nM.
With COCCN(CCOC)c1nc(N2CCc3oncc3C2)c2nc(N(CCOC)CCOC)nc(N3CCN(C)C(=O)C3)c2n1 [Compound 261, 4-(2,6-bis(bis(2-methoxyethyl)amino)-8-(6,7-dihydroisoxazolo[4,5-c]pyridin-5(4H)-yl)pyrimido[5,4-d]pyrimidin-4-yl)-1-methylpiperazin-2-one] the IC50 was less than 100 nM.
COCCN(CCOC)c1nc(N2CCCC(F)(F)C2)c2nc(N(CCOC)CCOC)nc(N3CCCC(F)(F)C3)c2n1 [Compound 33, 4,8-bis(3,3-difluoropiperidin-1-yl)-N2,N2,N6,N6-tetrakis(2-methoxyethyl)pyrimido[5,4-d]pyrimidine-2,6-diamine] was tested, and the IC50 was less than 100 nM.
For CCOC(=O)C1CCN(c2nc(N(CCOC)CCOC)nc3c(N4CCC(C(=O)OCC)CC4)nc(N(CCO)CCO)nc23)CC1 [Compound 14, diethyl 1,1′-(2-(bis(2-hydroxyethyl)amino)-6-(bis(2-methoxyethyl)amino)pyrimido[5,4-d]pyrimidine-4,8-diyl)bis(piperidine-4-carboxylate)], the IC50 was 500 to 1000 nM.
COCCN(CCOC)c1nc(N2CCC(OC)CC2)c2nc(N(CCOC)CCOC)nc(NC3CCCC3)c2n1 [Compound 167, N4-cyclopentyl-N2,N2,N6,N6-tetrakis(2-methoxyethyl)-8-(4-methoxypiperidin-1-yl)pyrimido[5,4-d]pyrimidine-2,4,6-triamine] was tested, and the IC50 was 100 to 500 nM.
Work on COCCN(CCOC)c1nc(N2CCC(F)(F)C2)c2nc(N(CCOC)CCOC)nc(N3CCC(OC)CC3)c2n1 [Compound 109, 4-(3,3-difluoropyrrolidin-1-yl)-N2,N2,N6,N6-tetrakis(2-methoxyethyl)-8-(4-methoxypiperidin-1-yl)pyrimido[5,4-d]pyrimidine-2,6-diamine] yielded an IC50 of 100 to 500 nM.
In the case of COCCN(CCOC)c1nc(N2CCc3oc(C)nc3C2)c2nc(N(CCOC)Cc3ccc(C(=O)O)cc3)nc(N3CCN(C)C(=O)C3)c2n1 [Compound 335, 4-(((6-(bis(2-methoxyethyl)amino)-4-(4-methyl-3-oxopiperazin-1-yl)-8-(2-methyl-6,7-dihydrooxazolo[4,5-c]pyridin-5(4H)-yl)pyrimido[5,4-d]pyrimidin-2-yl)(2-methoxyethyl)amino)methyl)benzoic acid], the IC50 is reported as less than 100 nM.
COCCN(CCOC)c1nc(N2CCC(OC)CC2)c2nc(N(CCOC)CCOC)nc(N3CCCCC3)c2n1 [Compound 318, N2,N2,N6,N6-tetrakis(2-methoxyethyl)-4-(4-methoxypiperidin-1-yl)-8-(piperidin-1-yl)pyrimido[5,4-d]pyrimidine-2,6-diamine] gave an IC50 of 500 to 1000 nM.
Compound CCN(CCN1CCCCC1)c1nc(N2CCN(C)C(=O)C2)c2nc(N(CCOC)CCOC)nc(N3CCC(OC)CC3)c2n1 [Compound 272, 4-(6-(bis(2-methoxyethyl)amino)-2-(ethyl(2-(piperidin-1-yl)ethyl)amino)-8-(4-methoxypiperidin-1-yl)pyrimido[5,4-d]pyrimidin-4-yl)-1-methylpiperazin-2-one] has an IC50 of 100 to 500 nM.
COCCN(CCOC)c1nc(N2CCC(OC)CC2)c2nc(N(CCOC)CCOC)nc(NCc3cccc(C#N)c3)c2n1 [Compound 145, 3-(((2,6-bis(bis(2-methoxyethyl)amino)-8-(4-methoxypiperidin-1-yl)pyrimido[5,4-d]pyrimidin-4-yl)amino)methyl)benzonitrile] gave an IC50 of less than 100 nM.
For COCCN(CCOC)c1nc(N2CCn3ncnc3C2)c2nc(N(CCOC)CCOC)nc(N3CCn4ncnc4C3)c2n1 [Compound 9, 4,8-bis(5,6-dihydro-[1,2,4]triazolo[1,5-a]pyrazin-7(8H)-yl)-N2,N2,N6,N6-tetrakis(2-methoxyethyl)pyrimido[5,4-d]pyrimidine-2,6-diamine], the IC50 was 100 to 500 nM.
For COCCN(CCC(=O)NS(=O)(=O)N(C)C)c1nc(N2CCN(C)C(=O)C2)c2nc(N(CCOC)CCOC)nc(N3CCC(OC)CC3)c2n1 [Compound 334, 3-((6-(bis(2-methoxyethyl)amino)-8-(4-methoxypiperidin-1-yl)-4-(4-methyl-3-oxopiperazin-1-yl)pyrimido[5,4-d]pyrimidin-2-yl)(2-methoxyethyl)amino)-N-(N,N-dimethylsulfamoyl)propanamide], the IC50 was 500 to 1000 nM.
